Tests used:
[1] = tested on: AGS cells; assay: In vitro cytotoxicity study, XTT assay; assay type: cell-based, human
Experimental: AGS cells (2×10^4 cells/well) were seeded in a 12-well plates (Corning, Millipore Sigma) with 1 mL of RPMI-1640 medium containing 10% FBS (Fetal Bovine Serum) and incubated for 1 day at 37° C. in a humidified incubator containing 5% CO2. AGS cells were allowed to proliferate for tests of in vitro antitumor activity. In triplicate wells, Group 1 (PBS), Group 2 (ISG formulation without everolimus or trametinib), Group 3 (ISG formulation with 90 μg of everolimus), Group 4 (ISG formulation with 90 μg of trametinib) and Group 5 (ISG formulation with 90 μg of everolimus and 90 μg of tramethinib), Group 6 (cell culture media without AGS cells) and Group 7 (10% ethanol in cell culture media) were added directly into chambers of the 12 well plate to examine the in vitro antitumor activity of these solutions against AGS cancer cells. […]
(§1) Briefly, 100 μL of PBS solution containing the XTT substrate (50 mg/mL) was added to each 12-well plate and the plates were incubated at 37° C. for 4 h. […] The solution of each well was transferred to a 96-well plate (triplicate for wells 1 and 2 and duplicate for well 3) and read using a microplate reader (Bio-teck XLS800; Bio-Tek Instruments City of Industry, CA). The optical density of the formazan product of each well was measured at a wavelength of 450 nm and a reference wavelength of 630 nm. […]

[2] = tested on: MIA PaCa-2 pancreatic cell line; assay: In vitro cytotoxicity study, XTT assay; assay type: cell-based, human; settings: MIA PaCa-2 cells
Experimental: (§2) AGS cells (2×10^4 cells/well) were seeded in a 12-well plates (Corning, Millipore Sigma) with 1 mL of RPMI-1640 medium containing 10% FBS (Fetal Bovine Serum) and incubated for 1 day at 37° C. in a humidified incubator containing 5% CO2. AGS cells were allowed to proliferate for tests of in vitro antitumor activity. In triplicate wells, Group 1 (PBS), Group 2 (ISG formulation without everolimus or trametinib), Group 3 (ISG formulation with 90 μg of everolimus), Group 4 (ISG formulation with 90 μg of trametinib) and Group 5 (ISG formulation with 90 μg of everolimus and 90 μg of tramethinib), Group 6 (cell culture media without AGS cells) and Group 7 (10% ethanol in cell culture media) were added directly into chambers of the 12 well plate to examine the in vitro antitumor activity of these solutions against AGS cancer cells.
(§3) Each 12 well plate chamber was seeded with AGS cells (2×10^4 cells/well). The 12 well plates were maintained at 37° C. in a humidified incubator containing 5% CO2 for 48 hours prior to dosing. To create a drug depot at dosing time, 2 μL of each of the ISG everolimus formulation (90 μg everolimus/well), the ISG trametinib formulation (90 μg trametinib/well) and ISG everolimus-trametinib (90 μg everolimus+90 μg trametinib) formulations were added directly into the media of each corresponding plate well and maintained at 37° C. in a humidified incubator for the duration of the experiment. […]
as §1

[3] = tested on: NCI H441 lung cell line; assay: In vitro cytotoxicity study, XTT assay; assay type: cell-based, human; settings: NCI H441 cells
Experimental: as §2, §3, §1

[4] = tested on: SW403 colorectal cell line; assay: In vitro cytotoxicity study, XTT assay; assay type: cell-based, human; settings: SW403 cells
Experimental: as §2, §3, §1

[5] = cited from earlier work
[6] = In vitro release study of sorafenib and everolimus PLGA microspheres (sample-and-separate method, HPLC); settings: during in vitro release study
Experimental: The in vitro release study was carried out by sample-and-separate method. Briefly, 5 mg of microsphere sample (n=3) was taken into 100 mL flask and dispersed in 50 mL of release medium (0.5% Tween 20 and 0.1% sodium azide in phosphate-buffered saline (PBS at pH 7.4)). The flasks were placed in orbital agitating incubator at 37° C. and shacked at 100 rpm. At certain time points, 40 mL medium was taken and centrifuged at 3000 rpm for 2 min. From the supernatant, 30 mL was pipetted and replaced by same amount of the fresh media. In the collected supernatant, the content of the released SOF or EVE was analyzed by high performance liquid chromatography (HPLC).

| stability of EVE inside the microsphere [6] | SMILES | in vitro cytotoxicity (XTT), ethanol treatment alone ([1]; 10% ethanol in cell culture media, 72 h time point) | in vitro cytotoxicity (XTT) ([1]; 24 and 72 h of exposure) | in vitro cytotoxicity (XTT) [2] | in vitro cytotoxicity (XTT) [3] | in vitro cytotoxicity (XTT) [4] | stability of EVE as free form in aqueous solution [5] |
| --- | --- | --- | --- | --- | --- | --- | --- |
|  | CCO [ethanol] | complete ablation and cytotoxicity of the cancer cells | ablation with a complete cytotoxic effect on the cancer cells | ablation with a complete cytotoxic effect on the cancer cells | ablation with a complete cytotoxic effect on the cancer cells | ablation with a complete cytotoxic effect on the cancer cells |  |
| stable inside the microsphere | CO[C@H]1C[C@@H]2CC[C@@H](C)[C@@](O)(O2)C(=O)C(=O)N2CCCC[C@H]2C(=O)O[C@H]([C@H](C)C[C@@H]2CC[C@@H](OCCO)[C@H](OC)C2)CC(=O)[C@H](C)/C=C(\C)[C@@H](O)[C@@H](OC)C(=O)[C@H](C)C[C@H](C)/C=C/C=C/C=C/1C [EVE, everolimus] |  |  |  |  |  | degrade quickly in aqueous solution as free form |
